Test results published in ChEMBL document CHEMBL3885861, “Open TG-GATES”.

Organism: Rattus norvegicus
Assay: Open TG-GATES - Regimen: Daily Repeat
Type: toxicity, organism-based, Sprague-Dawley
Set-up: regimen Daily Repeat, gender Male, age 6 weeks
Settings: in vivo, po, route gavage; for Bas / Eos / Fbg / Hb / Ht / Lym / MCV / Mono / Neu / PT / Plat / RBC / Ret / WBC / APTT / MCH / MCHC: tissue Blood; for KIDNEY_L / KIDNEY_R / KIDNEY_TOTAL: tissue Kidney; for LIVER: tissue Liver; for ALP / ALT / AST / BUN / CRE / DBIL / GLC / IP / K / LDH / Na / PL / RALB / TBIL / TC / TG / TP / gamma-GTP / Ca: tissue Plasma
[1] = 300 mg/kg, 72 h, dose level Middle, time 3 day
[2] = 300 mg/kg, […], dose level Middle, time 7 day
[3] = 300 mg/kg, […], dose level Middle, time 14 day
[4] = 300 mg/kg, […], dose level Middle, time 28 day
[5] = 1000 mg/kg, 72 h, dose level High, time 3 day
[6] = 1000 mg/kg, […], dose level High, time 7 day
[7] = 1000 mg/kg, […], dose level High, time 14 day
[8] = 1000 mg/kg, […], dose level High, time 28 day

Structure (SMILES): O=C(O)c1cn(C2CC2)c2cc(N3CCNCC3)c(F)cc2c1=O [CIPROFLOXACIN]
- Bas [1]: 0%
- Eos [1]: 1%
- Fbg [1]: 217 mg/dL
- Hb [1]: 13 g/dL
- Ht [1]: 38.7%
- Lym [1]: 78.4%
- MCV [1]: 63.5 fL
- Mono [1]: 6%
- Neu [1]: 14.4%
- PT [1]: 12.4 s
- Plat [1]: 103.1 x10_4/uL
- RBC [1]: 609 x10_4/ul
- Ret [1]: 6.9%
- WBC [1]: 87 x10_2/uL
- KIDNEY_L [1]: 0.9 g
- KIDNEY_R [1]: 0.9 g
- KIDNEY_TOTAL [1]: 1.8 g
- LIVER [1]: 8.6 g
- ALP [1]: 998 IU/L
- ALT [1]: 37.8 IU/L
- AST [1]: 68.4 IU/L
- BUN [1]: 16.4 mg/dL
- CRE [1]: 0.5 mg/dL
- DBIL [1]: 0.014 mg/dL
- GLC [1]: 182 mg/dL
- IP [1]: 9.1 mg/dL
- K [1]: 5 meq/L
- LDH [1]: 81 IU/L
- Na [1]: 140.4 meq/L
- PL [1]: 148.8 mg/dL
- RALB [1]: 3.8 g/dL
- TBIL [1]: 0.3 mg/dL
- TC [1]: 91 mg/dL
- TG [1]: 49.4 mg/dL
- TP [1]: 5.8 g/dL
- gamma-GTP [1]: 2.2 IU/L
- TERMINAL_BW [2]: 237.8 g
- TERMINAL_BW [3]: 282.8 g
- TERMINAL_BW [4]: 378.4 g
- APTT [2]: 16 s
- Bas [2]: 0%
- Eos [2]: 0.6%
- Fbg [2]: 218.5 mg/dL
- Hb [2]: 13.2 g/dL
- Ht [2]: 39.7%
- Lym [2]: 80.4%
- MCH [2]: 21.4 pg
- MCHC [2]: 33.4%
- MCV [2]: 64 fL
- Mono [2]: 4.8%
- Neu [2]: 14%
- PT [2]: 12.4 s
- Plat [2]: 98.1 x10_4/uL
- RBC [2]: 620.2 x10_4/ul
- Ret [2]: 6.7%
- WBC [2]: 128.7 x10_2/uL
- APTT [3]: 16.4 s
- Bas [3]: 0%
- Eos [3]: 1%
- Fbg [3]: 251 mg/dL
- Hb [3]: 13.9 g/dL
- Ht [3]: 41.6%
- Lym [3]: 83.4%
- MCH [3]: 20.4 pg
- MCHC [3]: 33.4%
- MCV [3]: 61.2 fL
- Mono [3]: 5%
- Neu [3]: 10.6%
- PT [3]: 10 s
- Plat [3]: 117.4 x10_4/uL
- RBC [3]: 680.8 x10_4/ul
- Ret [3]: 6.4%
- WBC [3]: 162 x10_2/uL
- APTT [4]: 16.7 s
- Bas [4]: 0%
- Eos [4]: 0.8%
- Fbg [4]: 245.2 mg/dL
- Ht [4]: 44%
- Lym [4]: 83.2%
- MCH [4]: 19.3 pg
- MCHC [4]: 33.2%
- MCV [4]: 58.1 fL
- Mono [4]: 5%
- Neu [4]: 10.8%
- Plat [4]: 100 x10_4/uL
- RBC [4]: 756.8 x10_4/ul
- Ret [4]: 3.2%
- WBC [4]: 123.6 x10_2/uL
- KIDNEY_L [2]: 1 g
- KIDNEY_R [2]: 1 g
- KIDNEY_TOTAL [2]: 2.1 g
- KIDNEY_L [3]: 1.1 g
- KIDNEY_R [3]: 1.1 g
- KIDNEY_TOTAL [3]: 2.3 g
- KIDNEY_L [4]: 1.3 g
- KIDNEY_R [4]: 1.3 g
- KIDNEY_TOTAL [4]: 2.6 g
- LIVER [2]: 10.8 g
- LIVER [3]: 12.3 g
- LIVER [4]: 16 g
- ALP [2]: 917.6 IU/L
- AST [2]: 66.4 IU/L
- BUN [2]: 20 mg/dL
- CRE [2]: 0.5 mg/dL
- Ca [2]: 11.4 mg/dL
- DBIL [2]: 0.004 mg/dL
- GLC [2]: 173.8 mg/dL
- IP [2]: 9 mg/dL
- K [2]: 4.9 meq/L
- LDH [2]: 65.2 IU/L
- Na [2]: 141.6 meq/L
- PL [2]: 160.8 mg/dL
- RALB [2]: 4 g/dL
- TBIL [2]: 0.3 mg/dL
- TC [2]: 90 mg/dL
- TG [2]: 86.6 mg/dL
- TP [2]: 5.8 g/dL
- gamma-GTP [2]: 1.2 IU/L
- ALP [3]: 973.2 IU/L
- ALT [3]: 31.6 IU/L
- AST [3]: 59.2 IU/L
- BUN [3]: 20.4 mg/dL
- CRE [3]: 0.6 mg/dL
- Ca [3]: 11 mg/dL
- DBIL [3]: 0.008 mg/dL
- GLC [3]: 184.8 mg/dL
- IP [3]: 7.8 mg/dL
- K [3]: 4.8 meq/L
- LDH [3]: 83.4 IU/L
- Na [3]: 139 meq/L
- PL [3]: 160 mg/dL
- RALB [3]: 4 g/dL
- TBIL [3]: 0.3 mg/dL
- TG [3]: 105.8 mg/dL
- TP [3]: 6 g/dL
- gamma-GTP [3]: 2.8 IU/L
- ALP [4]: 655 IU/L
- ALT [4]: 33.8 IU/L
- AST [4]: 59.4 IU/L
- BUN [4]: 19.8 mg/dL
- CRE [4]: 0.4 mg/dL
- DBIL [4]: 0.004 mg/dL
- GLC [4]: 180.8 mg/dL
- IP [4]: 7.7 mg/dL
- K [4]: 4.4 meq/L
- LDH [4]: 102.2 IU/L
- Na [4]: 140.6 meq/L
- PL [4]: 172 mg/dL
- RALB [4]: 4.1 g/dL
- TBIL [4]: 0.3 mg/dL
- TC [4]: 82.6 mg/dL
- TG [4]: 184.6 mg/dL
- TP [4]: 6.6 g/dL
- gamma-GTP [4]: 1 IU/L
- TERMINAL_BW [5]: 203.7 g
- APTT [5]: 18.7 s
- Bas [5]: 0%
- Eos [5]: 1%
- Fbg [5]: 222 mg/dL
- Hb [5]: 12.8 g/dL
- Ht [5]: 38.4%
- Lym [5]: 83.2%
- MCH [5]: 21.2 pg
- MCHC [5]: 33.4%
- Mono [5]: 6%
- Neu [5]: 10%
- PT [5]: 12.3 s
- Plat [5]: 101.1 x10_4/uL
- RBC [5]: 603.4 x10_4/ul
- Ret [5]: 6%
- WBC [5]: 121.3 x10_2/uL
- KIDNEY_L [5]: 0.9 g
- KIDNEY_R [5]: 1 g
- KIDNEY_TOTAL [5]: 1.9 g
- LIVER [5]: 9.6 g
- ALP [5]: 962.6 IU/L
- ALT [5]: 39 IU/L
- AST [5]: 65.2 IU/L
- BUN [5]: 16.8 mg/dL
- CRE [5]: 0.5 mg/dL
- Ca [5]: 11.2 mg/dL
- DBIL [5]: 0.004 mg/dL
- GLC [5]: 183.2 mg/dL
- IP [5]: 9.4 mg/dL
- K [5]: 4.9 meq/L
- LDH [5]: 143.2 IU/L
- Na [5]: 140.6 meq/L
- PL [5]: 139.2 mg/dL
- RALB [5]: 3.8 g/dL
- TBIL [5]: 0.2 mg/dL
- TC [5]: 86 mg/dL
- TP [5]: 5.7 g/dL
- gamma-GTP [5]: 1.4 IU/L
- TERMINAL_BW [6]: 228.1 g
- TERMINAL_BW [7]: 267.6 g
- TERMINAL_BW [8]: 381.8 g
- APTT [6]: 16 s
- Bas [6]: 0%
- Eos [6]: 0.8%
- Fbg [6]: 231.8 mg/dL
- Hb [6]: 13.5 g/dL
- Ht [6]: 40.4%
- Lym [6]: 81.2%
- MCH [6]: 21.1 pg
- MCHC [6]: 33.5%
- MCV [6]: 63 fL
- Mono [6]: 5.4%
- Neu [6]: 12.8%
- Plat [6]: 106.3 x10_4/uL
- RBC [6]: 640.8 x10_4/ul
- Ret [6]: 6.4%
- WBC [6]: 154.8 x10_2/uL
- APTT [7]: 16.2 s
- Bas [7]: 0%
- Eos [7]: 0.8%
- Fbg [7]: 255.2 mg/dL
- Hb [7]: 14.3 g/dL
- Ht [7]: 43%
- Lym [7]: 82.8%
- MCH [7]: 20.4 pg
- MCHC [7]: 33.2%
- MCV [7]: 61.6 fL
- Mono [7]: 4.4%
- Neu [7]: 12.4%
- PT [7]: 10.2 s
- Plat [7]: 97.3 x10_4/uL
- RBC [7]: 699.2 x10_4/ul
- Ret [7]: 5.7%
- WBC [7]: 139.4 x10_2/uL
- Bas [8]: 0%
- Eos [8]: 1%
- Fbg [8]: 248 mg/dL
- Hb [8]: 14.7 g/dL
- Lym [8]: 85%
- MCH [8]: 19.5 pg
- MCHC [8]: 33.5%
- MCV [8]: 58.2 fL
- Mono [8]: 3.4%
- Neu [8]: 10.8%
- Plat [8]: 110.7 x10_4/uL
- RBC [8]: 757.8 x10_4/ul
- Ret [8]: 3.5%
- WBC [8]: 156.8 x10_2/uL
- KIDNEY_L [6]: 1 g
- KIDNEY_R [6]: 1 g
- KIDNEY_TOTAL [6]: 2 g
- KIDNEY_L [7]: 1.1 g
- KIDNEY_R [7]: 1.1 g
- KIDNEY_TOTAL [7]: 2.2 g
- KIDNEY_L [8]: 1.4 g
- KIDNEY_R [8]: 1.4 g
- KIDNEY_TOTAL [8]: 2.8 g
- LIVER [6]: 10.5 g
- LIVER [7]: 11 g
- LIVER [8]: 15 g
- ALP [6]: 850.4 IU/L
- AST [6]: 64 IU/L
- BUN [6]: 21.2 mg/dL
- CRE [6]: 0.5 mg/dL
- Ca [6]: 11.5 mg/dL
- DBIL [6]: 0 mg/dL
- GLC [6]: 182.4 mg/dL
- IP [6]: 9.6 mg/dL
- K [6]: 5.1 meq/L
- LDH [6]: 96.8 IU/L
- Na [6]: 141 meq/L
- PL [6]: 158.8 mg/dL
- RALB [6]: 3.8 g/dL
- TBIL [6]: 0.2 mg/dL
- TC [6]: 86 mg/dL
- TG [6]: 90.2 mg/dL
- TP [6]: 5.8 g/dL
- gamma-GTP [6]: 1.6 IU/L
- ALP [7]: 871.8 IU/L
- AST [7]: 61.4 IU/L
- BUN [7]: 22.8 mg/dL
- CRE [7]: 0.6 mg/dL
- DBIL [7]: 0.03 mg/dL
- GLC [7]: 182.6 mg/dL
- IP [7]: 7.8 mg/dL
- K [7]: 4.8 meq/L
- LDH [7]: 171.8 IU/L
- Na [7]: 139.2 meq/L
- PL [7]: 169 mg/dL
- RALB [7]: 4 g/dL
- TBIL [7]: 0.2 mg/dL
- TC [7]: 92 mg/dL
- TP [7]: 6.1 g/dL
- gamma-GTP [7]: 1.8 IU/L
- ALP [8]: 690 IU/L
- ALT [8]: 32.4 IU/L
- AST [8]: 51.8 IU/L
- BUN [8]: 19.4 mg/dL
- CRE [8]: 0.4 mg/dL
- Ca [8]: 11.2 mg/dL
- DBIL [8]: 0.022 mg/dL
- GLC [8]: 180.6 mg/dL
- IP [8]: 7.5 mg/dL
- K [8]: 4.4 meq/L
- LDH [8]: 160.6 IU/L
- Na [8]: 140.2 meq/L
- PL [8]: 173 mg/dL
- RALB [8]: 4.1 g/dL
- TBIL [8]: 0.2 mg/dL
- TC [8]: 96 mg/dL
- TG [8]: 102 mg/dL
- TP [8]: 6.6 g/dL
- gamma-GTP [8]: 2.4 IU/L
